Blank lines part the entries; values can stand above or below the molecule they belong to. Activity calls are given as the source filed them. The rule behind the calls is not given here.
Columns and labels:
HeLa = experiment: Antiproliferative activity against human HeLa cells measured after 48 hrs by CCK-8 method
MDA-MB-435 = experiment: Antiproliferative activity against human MDA-MB-435 cells measured after 3 days by CCK-8 method; details: MDA-MB-435, 72 h
MDA-MB-231 [1] = experiment: Antiproliferative activity against human MDA-MB-231 cells measured after 3 days by CCK-8 method; details: MDA-MB-231, 72 h
MDA-MB-231 [2] = experiment: Antitumor activity against human MDA-MB-231 cells xenografted in BALB/c nude mouse model assessed as reduction in tumor growth at 30 mg/kg, ip administered daily for 18 days by vernier caliper method relative to control; format: functional; parameters: scale not given: the % may be the effect or the level left; details: time 18 day
MDA-MB-231 [3] = experiment: Induction of DNA damage in human MDA-MB-231 cells assessed as increase in gamma-H2AX expression at 1 to 4 uM incubated for 24 hrs by Western blot analysis; format: functional, cell-based; details: dose 1-4 µM
[4] = Toxicity in BALB/c nude mouse assessed as effect on liver at 15 to 30 mg/kg, ip measured after 18 days; format: organism-based; details: in vivo, 432 h, dose 15-30 mg/kg, time 18 day
MDA-MB-231 [5] = experiment: Induction of apoptosis in human MDA-MB-231 cells assessed as late apoptotic cells at 2 uM incubated for 24 hrs by Annexin V-FITC/PI staining based flow cytometry analysis (reference value: 0.46%); format: functional
MDA-MB-231 [6] = experiment: Induction of apoptosis in human MDA-MB-231 cells assessed as early apoptotic cells at 2 uM incubated for 24 hrs by Annexin V-FITC/PI staining based flow cytometry analysis (reference value: 5.40%); format: functional
MDA-MB-231 [7] = experiment: Induction of apoptosis in human MDA-MB-231 cells assessed as early apoptotic cells at 8 uM incubated for 24 hrs by Annexin V-FITC/PI staining based flow cytometry analysis (reference value: 5.40%); format: functional
MDA-MB-231 [8] = experiment: Induction of cell cycle arrest in human MDA-MB-231 cells assessed as increase in accumulation of cells at G2/M phase at 8 uM measured after 24 hrs by PI staining based flow cytometry analysis (reference value: 26.38%); format: functional
[9] = Toxicity in BALB/c nude mouse assessed as effect on heart at 15 to 30 mg/kg, ip measured after 18 days; format: organism-based; details: in vivo, 432 h, dose 15-30 mg/kg, time 18 day
MDA-MB-231 [10] = experiment: Induction of cell cycle arrest in human MDA-MB-231 cells assessed as increase in accumulation of cells at G2/M phase at 4 uM measured after 24 hrs by PI staining based flow cytometry analysis (reference value: 26.38%); format: functional
[11] = Toxicity in BALB/c nude mouse assessed as change in ALT level in liver serum at 15 to 30 mg/kg, ip administered daily for 18 days; format: organism-based; details: in vivo, 432 h, dose 15-30 mg/kg, time 18 day
[12] = Antiproliferative activity against human MCF-10A cells assessed as inhibition of cell growth measured after 48 hrs by CCK-8 method; format: toxicity, cell-based
[13] = Toxicity in BALB/c nude mouse assessed as effect on body weight at 15 to 30 mg/kg, ip administered daily for 18 days; format: organism-based; details: in vivo, 432 h, dose 15-30 mg/kg, time 18 day
[14] = Toxicity in BALB/c nude mouse assessed as effect on kidney at 15 to 30 mg/kg, ip measured after 18 days; format: organism-based; details: in vivo, 432 h, dose 15-30 mg/kg, time 18 day
MDA-MB-231 [15] = experiment: Induction of apoptosis in human MDA-MB-231 cells assessed as late apoptotic cells at 8 uM incubated for 24 hrs by Annexin V-FITC/PI staining based flow cytometry analysis (reference value: 0.46%); format: functional
MDA-MB-231 [16] = experiment: Induction of DNA damage in human MDA-MB-231 cells assessed as increase in gamma-H2AX fluorescence intensity at 1 to 4 uM incubated for 48 hrs by immunofluorescence staining based analysis; format: functional, cell-based; details: dose 1-4 µM
MDA-MB-231 [17] = experiment: Antiproliferative activity against human MDA-MB-231 cells assessed as reduction in number of cells in S phase at 1 to 4 uM measured after 48 hrs by EdU incorporation assay; format: functional, cell-based; details: dose 1-4 µM
MDA-MB-231 [18] = experiment: Induction of cell cycle arrest in human MDA-MB-231 cells assessed as increase in accumulation of cells at G2/M phase at 2 uM measured after 24 hrs by PI staining based flow cytometry analysis (reference value: 26.38%); format: functional
[19] = Toxicity in BALB/c nude mouse assessed as change in CK level in heart serum at 15 to 30 mg/kg, ip administered daily for 18 days; format: organism-based; details: in vivo, 432 h, dose 15-30 mg/kg, time 18 day
MDA-MB-231 [20] = experiment: Induction of cell cycle arrest in human MDA-MB-231 cells assessed as upregulation of phosphorylated histone H3 level at 2 to 4 uM measured after 12 hrs by Western blot analysis; format: functional, cell-based; details: dose 2-4 µM
MDA-MB-231 [21] = experiment: cells; details: Homo sapiens, MDA-MB-231, 48 h
Description: Antiproliferative activity against human MDA-MB-231 cells assessed as inhibition of cell growth measured after 48 hrs by CCK-8 method

[22] = Toxicity in BALB/c nude mouse assessed as change in AST level in liver serum at 15 to 30 mg/kg, ip administered daily for 18 days; format: organism-based; details: in vivo, 432 h, dose 15-30 mg/kg, time 18 day
MCF7 = experiment: cells; details: Homo sapiens, MCF7, 48 h
Description: Antiproliferative activity against human MCF7 cells assessed as inhibition of cell growth measured after 48 hrs by CCK-8 method

MDA-MB-231 [23] = experiment: Antitumor activity against human MDA-MB-231 cells xenografted in BALB/c nude mouse model assessed as reduction in tumor volume at 15 to 30 mg/kg, ip administered daily for 18 days by vernier caliper method; format: functional, organism-based; details: dose 15-30 mg/kg, time 18.0 day
MDA-MB-231 [24] = experiment: Induction of apoptosis in human MDA-MB-231 cells assessed as late apoptotic cells at 4 uM incubated for 24 hrs by Annexin V-FITC/PI staining based flow cytometry analysis (reference value: 0.46%); format: functional
[25] = Antiproliferative activity against human HK-2 cells assessed as inhibition of cell growth measured after 48 hrs by CCK-8 method; format: toxicity, cell-based
MDA-MB-231 [26] = experiment: Induction of apoptosis in human MDA-MB-231 cells assessed as necrotic cells at 8 uM incubated for 24 hrs by Annexin V-FITC/PI staining based flow cytometry analysis (reference value: 0.033%); format: functional
MDA-MB-231 [27] = experiment: Induction of apoptosis in human MDA-MB-231 cells assessed as necrotic cells at 2 uM incubated for 24 hrs by Annexin V-FITC/PI staining based flow cytometry analysis (reference value: 0.033%); format: functional
MDA-MB-231 [28] = experiment: Antitumor activity against human MDA-MB-231 cells xenografted in BALB/c nude mouse model assessed as reduction in tumor growth at 15 mg/kg, ip administered daily for 18 days by vernier caliper method relative to control; format: functional; parameters: scale not given: the % may be the effect or the level left; details: time 18 day
MDA-MB-231 [29] = experiment: Induction of apoptosis in human MDA-MB-231 cells assessed as necrotic cells at 4 uM incubated for 24 hrs by Annexin V-FITC/PI staining based flow cytometry analysis (reference value: 0.033%); format: functional
MDA-MB-231 [30] = experiment: Antitumor activity against human MDA-MB-231 cells xenografted in BALB/c nude mouse model assessed as reduction in tumor weight at 15 to 30 mg/kg, ip administered daily for 18 days by vernier caliper method; format: functional, organism-based; details: dose 15-30 mg/kg, time 18.0 day
MDA-MB-231 [31] = experiment: Induction of apoptosis in human MDA-MB-231 cells assessed as viable cells at 4 uM incubated for 24 hrs by Annexin V-FITC/PI staining based flow cytometry analysis (reference value: 94.1%); format: functional; details: read-out: Activity
[32] = Toxicity in BALB/c nude mouse assessed as change in LDH level in heart serum at 15 to 30 mg/kg, ip administered daily for 18 days; format: organism-based; details: in vivo, 432 h, dose 15-30 mg/kg, time 18 day
MDA-MB-231 [33] = experiment: Induction of apoptosis in human MDA-MB-231 cells assessed as early apoptotic cells at 4 uM incubated for 24 hrs by Annexin V-FITC/PI staining based flow cytometry analysis (reference value: 5.40%); format: functional
[34] = Toxicity in BALB/c nude mouse assessed as change in BUN level in kidney serum at 15 to 30 mg/kg, ip administered daily for 18 days; format: organism-based; details: in vivo, 432 h, dose 15-30 mg/kg, time 18 day
MDA-MB-436 = experiment: cells; details: Homo sapiens, MDA-MB-436, 48 h
Description: Antiproliferative activity against human MDA-MB-436 cells assessed as inhibition of cell growth measured after 48 hrs by CCK-8 method

MDA-MB-231 [35] = experiment: Induction of apoptosis in human MDA-MB-231 cells assessed as increase in cleaved PARP expression at 2 to 4 uM measured after 12 hrs by Western blot analysis; format: functional, cell-based; details: dose 2-4 µM
[36] = Toxicity in BALB/c nude mouse assessed as change in CREA level in kidney serum at 15 to 30 mg/kg, ip administered daily for 18 days; format: organism-based; details: in vivo, 432 h, dose 15-30 mg/kg, time 18 day
MDA-MB-231 [37] = experiment: Induction of apoptosis in human MDA-MB-231 cells assessed as viable cells at 2 uM incubated for 24 hrs by Annexin V-FITC/PI staining based flow cytometry analysis (reference value: 94.1%); format: functional; details: read-out: Activity
[38] = Antiproliferative activity against rat H9c2 cells assessed as inhibition of cell growth measured after 48 hrs by CCK-8 method; format: toxicity, cell-based
MDA-MB-231 [39] = experiment: Induction of apoptosis in human MDA-MB-231 cells assessed as viable cells at 8 uM incubated for 24 hrs by Annexin V-FITC/PI staining based flow cytometry analysis (reference value: 94.1%); format: functional; details: read-out: Activity

IC50 (HeLa): 0.06 µM
SMILES: Nc1nc(F)nc2c1ncn2C(NC(=O)NCCN1CCOCC1)C(Cl)(Cl)Cl (stereo not drawn)

IC50 (MDA-MB-435): 2 µM
IC50 (MDA-MB-231 [1]): 2.6 µM
SMILES: Cc1ncsc1-c1ccc(CNC(=O)[C@@H]2C[C@@H](O)CN2C(=O)[C@@H](NC(=O)CCOCCOCCOCCOCCOCCC(=O)NCCCOC(=O)NC(Nc2ncccn2)C(Cl)(Cl)Cl)C(C)(C)C)cc1 (stereo partly drawn)

IC50 (MDA-MB-231 [21]): 3.28 µM
IC50 (MCF7): 13.8 µM
IC50 (MDA-MB-436): 3.86 µM
SMILES: O=C(NC(Nc1nc(Cl)cc(Nc2ccc(C(F)(F)F)cc2)n1)C(Cl)(Cl)Cl)OCCNC(=O)c1cnc(C(F)(F)F)s1 (stereo not drawn)
Activity (MDA-MB-231 [2]): 90%
Activity (MDA-MB-231 [3]): Active
Activity [4]: Non-toxic
Activity (MDA-MB-231 [5]): 0.26%
Activity (MDA-MB-231 [6]): 7.46%
Activity (MDA-MB-231 [7]): 38.8%
Activity (MDA-MB-231 [8]): 54.71%
Activity [9]: Non-toxic
Activity (MDA-MB-231 [10]): 34.91%
Activity [11]: Non-toxic
IC50 at 48 h [12]: 23.9 µM
Activity [13]: Non-toxic
Activity [14]: Non-toxic
Activity (MDA-MB-231 [15]): 7.61%
Activity (MDA-MB-231 [16]): Active
Activity (MDA-MB-231 [17]): Active
Activity (MDA-MB-231 [18]): 26.89%
Activity [19]: Non-toxic
Activity (MDA-MB-231 [20]): Active
Activity [22]: Non-toxic
Activity (MDA-MB-231 [23]): Active
Activity (MDA-MB-231 [24]): 0.62%
IC50 at 48 h [25]: 23.4 µM
Activity (MDA-MB-231 [26]): 1.1%
Activity (MDA-MB-231 [27]): 0.01%
Activity (MDA-MB-231 [28]): 86%
Activity (MDA-MB-231 [29]): 0.62%
Activity (MDA-MB-231 [30]): Active
viability at 4 µM (MDA-MB-231 [31]): 85.4%
Activity [32]: Non-toxic
Activity (MDA-MB-231 [33]): 13.4%
Activity [34]: Non-toxic
Activity (MDA-MB-231 [35]): Active
Activity [36]: Non-toxic
viability at 2 µM (MDA-MB-231 [37]): 91.7%
IC50 at 48 h [38]: 19.4 µM
viability at 8 µM (MDA-MB-231 [39]): 52.4%
